Laboratory results taken from US20020045771A1, “Family of canadensol taxanes, the semi-synthetic preparation and therapeutic use thereof” (Institut National de la Recherche Scientifique, priority 1996, published 2002).
Entries after “also recorded” stand apart in the source; their conditions may differ.

Experiments:
tubulin = assay: In vitro microtubule assay (tubulin polymerisation, absorbance at 350 nm); type: biochemical, calf; conditions: for concentration dependence of tubulin polymerisation: 5 μM and 10 μM (FIG. 2); for enhancement of tubulin polymerisation / antimitotic activity: same concentration (10 μM), FIG. 3; for tubulin polymerisation / antimitotic activity compared with paclitaxel: same concentration (FIGS. 1-4)
A2780 cells = assay: MTT cytotoxicity assay; type: cell-based, human; conditions: for % (absorbance relative to control) / Abs.: 72 h; for Abs.: absorbance at 570 nm (MTT); for IC50: A2780, 72 h continuous treatment, MTT
Method: 1—Cell lines and cell culture. The human ovarian adenocarcinoma cell line A2780 was used to evaluate the antiproliferative activity of taxoids. These cells were grown in either RPMI medium supplemented with 10% fetal bovine serum and penicillin-streptomycin antibiotics. Cells were maintained in culture at 37° C. in an atmosphere of 5% CO2.
2—Cytotoxicity assay. Exponentially growing cells (2-3×10^3 cells/[…]) were seeded in 96-well plates and incubated for 16 h. Cells were then treated continuously with the extracts. 72 h later, cell survival was evaluated by replacing the culture media with […] fresh medium containing 10 mM 4-(2-hydroxyethyl)-1 -piperazineethamesulfonic acid buffer, pH 7.4. and […] of 2.5 mg/ml of 3-(4,5-dimethylthiazo-2-yl)-2,5-diphenyltetrazolium bromide (MTT) in PBS, pH 7.4, were then added. After as 3-4 h of incubation at 37° C., the medium and MTT were removed, and […] of DMSO was added to dissolve the precipitate of reduced MTT, followed by addition of […] glycine buffer (0.1M glycine plus 0.1M NaCl, pH 10.5). The formazan crystals were then dissolved and the absorbance was determined at 570 nm with a microplate reader (BIORAD, model 450). The MTT assay distinguished between viable and non-viable cells on the basis for the requirement of physiologically active mitochondria to metabolize the MTT only in viable cells. The IC50 was calculated as the concentration of drug causing a 50% inhibition in the absorbance compared to cells treated with solvent alone, Table I.

[1] = tested on: DA3 mammary adenocarcinoma tumors; assay: In vivo study using DA3 cell model (tumour volume); parameters: species or system mouse
Source text: Origin: The DA3 cell line used in this study was derived from a hyperplastic mammary outgrowth (preneoplastic lesion) treated with 7,12-dimethylbenzanthracene (DMBA). DMBA-treated explant was then transplanted into the mammary glands of a female BALB/c mouse, and the resulting tumor was used to establish the DA3 cell line. DA3 is an immunogenic and non-metastatic mammary adenocarcinoma.
Source: The cell line used in our study was originally obtained from Dr. Medina in 1993. Stocks of these cells were generated and stored during early passages in liquid nitrogen. One vial from this early stock was cultured and cells generated were used to confirm the absence of viral and mycoplasma infections. Cells were then propagated and stocks of these cells were established and stored in liquid nitrogen for further studies with Dup compounds.
Cell culture: DA3 cells were maintained in RPMI 1640 medium supplemented with 1M mercaptoethanol, 1M Hepes buffer solution, […] sodium pyruvate, 200 mM L-glutamine, 10 mM non-essential amino acids, 1M vitamins, 10% fetal bovine serum, 1% penicillin-streptomycin. Cells were maintained at 37° C. under 5% CO2.
Animal. […] Mice were maintained at the Lady Davis Institute [LDI] Animal Care Facility.
Tumor cell inoculation and treatments. After one week acclimatisation, mice were randomized into a group of 5 per cage. Cages were randomly assigned to specific experimental groups. The mice were then labeled by numbers using the “ear punching” method. DA3 cells were transplanted subcutaneously to mice, as a suspension of tumor cells [1×10^6 viable cells per 0.1 ml], in the right flank. All animals were inoculated at the same site.
For tumor induction, cells were grown to 70% confluence in complete medium and then collected using trypsin-EDTA solution [0.05% trypsin, 0.53 mM EDTA-4Na in HBSS Ca^++, Mg^++ and NaHCO3 free]. cells were then centrifuged and washed three times with phosphate buffer solution and resuspended at a dilution of 0.1 to 1×10^6 cells/0.1 ml. […]

[2] = Toxicity in DA3 tumor-bearing BALB/c mice (body weight, mortality); conditions: given twice at 40 mg/kg, iv
Source text: Animal. Female BALB/c mice (Charles River Inc.) were used to grow DA3 tumors. Mice were maintained at the Lady Davis Institute [LDI] Animal Care Facility.
Treatment was initiated when tumors become palpable. Drug was given twice (day 1 and day 3) by iv. Control animals were given the same volume of saline solution. The dose of each drug was normalized to mouse body weight.
Tumor measurement. animals were examined every day but the tumor growth was monitored every second or third day using calipers. Parameters measured are: tumor measured along the longest axis (length) and the perpendicular shortest axis (width) and the relative tumor volume (in cm^3) was calculated by the formula: [Length (cm)×(width cm)^2]/2. Tumors which reach the limit size permitted by the Canadian regulation on the use of laboratory animals, or showing any apparent distress or discomfort were immediately sacrificed independently of the experimental protocol [usually 2-3 cm^3 but this depend on animal status and the decision is taken by the animal room personnel]. Animals were subjected, on a daily basis, to general examination.

[3] = listed as semi-synthetic Canadensol

SMILES	% (absorbance relative to control) (A2780 cells; 0.2 nM)	Abs. (A2780 cells; 0.2 nM)	% (absorbance relative to control) (A2780 cells; 2 nM)	Abs. (A2780 cells; 2 nM)	% (absorbance relative to control) (A2780 cells; 10 nM)	Abs. (A2780 cells; 10 nM)	% (absorbance relative to control) (A2780 cells; 20 nM)	Abs. (A2780 cells; 20 nM)	% (absorbance relative to control) (A2780 cells; 100 nM)	Abs. (A2780 cells; 100 nM)	% (absorbance relative to control) (A2780 cells; 200 nM)	Abs. (A2780 cells; 200 nM)	IC50 (A2780 cells; Homo sapiens)	further results
CC(=O)OC1C(=O)[C@]2(C)C(O)CC3OCC3(OC(C)=O)C2C(OC(=O)c2ccccc2)C2(O)CC(OC(=O)C(O)C(NC(=O)C(C)C)c3ccccc3)C(C)=C1C2(C)C (some centres unmarked) [Canadensol]	100.00%	1.598	94.12%	1.504	77.97%	1.246	50.81%	0.812	1.63%	0.026	1.13%	0.018	0.0213 µM	concentration dependence of tubulin polymerisation (tubulin): concentration dependent antimitotic effect; concentration dependence of tubulin polymerisation (tubulin; [3]): dose-dependent response; enhancement of tubulin polymerisation / antimitotic activity (tubulin): more effective; enhancement of tubulin polymerisation / antimitotic activity (tubulin; [3]): greater enhancement of tubulin polymerisation than semi-synthetic Taxcultine (ssT) or paclitaxel (P); tubulin polymerisation / antimitotic activity compared with paclitaxel (tubulin): more active than paclitaxel and taxcultine; also recorded: higher antimitotic activity than paclitaxel; tubulin polymerisation / antimitotic activity compared with paclitaxel (tubulin; [3]): higher degree of tubulin polymerisation than Paclitaxel; inhibiting the growth of A2780 (comparison) (A2780 cells; FIGS. 6, 7 and Table I): as active as paclitaxel or taxcultine; period in which antitumor effect was significant ([1]; given twice at 40 mg/kg, iv): significant from day 30 to day 40 of tumor growth; antitumor activity ([1]; given twice at 40 mg/kg, iv, FIG. 9): induce antitumor activity; toxic effect [2]: No toxic effect was observed
CC(=O)O[C@H]1C(=O)[C@@]2(C)[C@H]([C@H](OC(=O)c3ccccc3)[C@]3(O)C[C@H](OC(=O)[C@H](O)[C@@H](NC(=O)c4ccccc4)c4ccccc4)C(C)=C1C3(C)C)[C@]1(OC(C)=O)CO[C@@H]1C[C@@H]2O [paclitaxel]	101.54%	1.455	102.16%	1.464	81.09%	1.162	36.43%	0.522	1.47%	0.021	1.40%	0.02	0.017 µM	antitumor activity ([1]; tolerable doses (20-40 mg/Kg), iv day 1 and day 3): no significant antitumor activity
CCCC(=O)N[C@@H](c1ccccc1)[C@@H](O)C(=O)O[C@H]1C[C@@]2(O)[C@@H](OC(=O)c3ccccc3)[C@@H]3[C@]4(OC(C)=O)CO[C@@H]4C[C@H](O)[C@@]3(C)C(=O)[C@H](OC(C)=O)C(=C1C)C2(C)C [taxcultine]	100.00%	1.535	100.07%	1.536	71.21%	1.093	36.09%	0.554	2.08%	0.032	1.43%	0.022	–	IC50 (A2780 cells): 0.016 µM
